In patent US9113629B2, “4-amino-6-(4-substituted-phenyl)-picolinates and 6-amino-2-(4-substituted-phenyl)-pyrimidine-4-carboxylates and their use as herbicides” (DOW AGROSCIENCES LLC, priority 2013, dated 2015):
Where two headings read alike, the source gives them in different places.

Assays:
[1] = system: Key Grass and Sedge Weeds as well as Grass Crops; experiment: Post-emergent Test II herbicidal activity (Table 6); assay type: in vivo; conditions: post-emergence, 336 h; for pest or weed control at 70 g/ha: application rate 70 g ai/ha; for pest or weed control at 140 g/ha: application rate 140 g ai/ha
How it was run: (§1)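 Scoring: visual, 0–100% injury at 14 d versus untreated. Treatment: overhead track spray, 187 L/ha, onto plants at the first–second true leaf stage. Growth: greenhouse, ~15 h light, 23–29 °C day, 22–28 °C night.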

[2] = system: Key Broadleaf Weed and Crop Species; experiment: Post-emergent Test II herbicidal activity (Table 5); assay type: in vivo; conditions: post-emergence, 336 h, post-emergent, 14 days after application; for pest or weed control at 70 g/ha: 70 g ai/ha; for pest or weed control at 140 g/ha: 140 g ai/ha
How it was run: as §1

[3] = CYPES: yellow nutsedge (Cyperus esculentus), read-out: Visual Growth Reduction (%) 14 Days After Application, CYPES
[4] = DIGSA: crabgrass (Digitaria sanguinalis), read-out: Visual Growth Reduction (%) 14 Days After Application, DIGSA
[5] = ECHCG: barnyardgrass (Echinochloa crus-galli), read-out: Visual Growth Reduction (%) 14 Days After Application, ECHCG
[6] = ORYSA: rice (Oryza sativa), read-out: Visual Growth Reduction (%) 14 Days After Application, ORYSA
[7] = SETFA: giant foxtail (Setaria faberi), read-out: Visual Growth Reduction (%) 14 Days After Application, SETFA
[8] = SORVU: grain sorghum (Sorghum vulgare), read-out: Visual Growth Reduction (%) 14 Days After Application, SORVU
[9] = TRZSS (wheat, Triticum aestivum), read-out: Visual Growth Reduction (%) 14 Days After Application, TRZSS
[10] = ZEAMX: maize, corn (Zea mays), read-out: Visual Growth Reduction (%) 14 Days After Application, ZEAMX
[11] = ABUTH: velvetleaf (Abutilon theophrasti), read-out: Visual Growth Reduction (%) 14 Days After Application ABUTH
[12] = AMARE: redroot pigweed (Amaranthus retroflexus), read-out: Visual Growth Reduction (%) 14 Days After Application AMARE
[13] = BRSNN: oilseed-rape, canola (Brassica napus), read-out: Visual Growth Reduction (%) 14 Days After Application BRSNN
[14] = CHEAL: lambsquarters (Chenopodium album), read-out: Visual Growth Reduction (%) 14 Days After Application CHEAL
[15] = EPHHL: wild poinsettia (Euphorbia heterophylla), read-out: Visual Growth Reduction (%) 14 Days After Application EPHHL
[16] = HELAN: sunflower (Helianthus annuus), read-out: Visual Growth Reduction (%) 14 Days After Application HELAN
[17] = VIOTR: wild pansy (Viola tricolor), read-out: Visual Growth Reduction (%) 14 Days After Application VIOTR

For `COC(=O)c1nc(-c2cc(F)c(C#N)cc2F)nc(N)c1OC` [Compound 208], the pest or weed control at 70 g/ha [1, 3] was 0 to 29%, the pest or weed control at 140 g/ha [1, 3] was 0 to 29% and the pest or weed control at 70 g/ha [1, 4] was 0 to 29%. It also gave a pest or weed control at 140 g/ha [1, 4] of 0 to 29%, a pest or weed control at 70 g/ha [1, 5] of 0 to 29% and a pest or weed control at 140 g/ha [1, 5] of 0 to 29%. The pest or weed control at 70 g/ha [1, 6] was 0 to 29%, the pest or weed control at 140 g/ha [1, 6] was 0 to 29% and the pest or weed control at 70 g/ha [1, 7] was 0 to 29%. For the same compound, the pest or weed control at 140 g/ha [1, 7] was 0 to 29%, the pest or weed control at 70 g/ha [1, 8] was 0 to 29% and the pest or weed control at 140 g/ha [1, 8] was 0 to 29%. It also gave a pest or weed control at 70 g/ha [1, 9] of 0 to 29%, a pest or weed control at 140 g/ha [1, 9] of 0 to 29% and a pest or weed control at 70 g/ha [1, 10] of 0 to 29%. It also gave a pest or weed control at 140 g/ha [1, 10] of 0 to 29%, a melting point of 165 to 166.5 °C and a pest or weed control at 70 g/ha [2, 11] of 0 to 29%. The pest or weed control at 140 g/ha [2, 11] was 0 to 29%, the pest or weed control at 70 g/ha [2, 12] was 0 to 29% and the pest or weed control at 140 g/ha [2, 12] was 0 to 29%. For the same compound, the pest or weed control at 70 g/ha [2, 13] was 0 to 29%, the pest or weed control at 140 g/ha [2, 13] was 0 to 29% and the pest or weed control at 70 g/ha [2, 14] was 0 to 29%. The pest or weed control at 140 g/ha [2, 14] was 0 to 29%, the pest or weed control at 70 g/ha [2, 15] was 30 to 44% and the pest or weed control at 140 g/ha [2, 15] was 45 to 59%. The pest or weed control at 70 g/ha [2, 16] was 0 to 29%, the pest or weed control at 140 g/ha [2, 16] was 45 to 59% and the pest or weed control at 70 g/ha [2, 17] was 0 to 29%. The pest or weed control at 140 g/ha [2, 17] was 0 to 29%.
